Measured values reported in article PMC3069034, “Structuring Detergents for Extracting and Stabilizing Functional Membrane Proteins” (PLoS ONE, 2011).

Molecular target: BmrA (Bacillus subtilis, UniProt O06967)
Experiment: intrinsic tryptophan fluorescence quenching of purified protein
Type: binding
Text: intrinsic tryptophan fluorescence quenching of purified protein on BmrA | the binding of daunorubicin was similar for both detergents.

BmrA, sequence (O06967 whole entry): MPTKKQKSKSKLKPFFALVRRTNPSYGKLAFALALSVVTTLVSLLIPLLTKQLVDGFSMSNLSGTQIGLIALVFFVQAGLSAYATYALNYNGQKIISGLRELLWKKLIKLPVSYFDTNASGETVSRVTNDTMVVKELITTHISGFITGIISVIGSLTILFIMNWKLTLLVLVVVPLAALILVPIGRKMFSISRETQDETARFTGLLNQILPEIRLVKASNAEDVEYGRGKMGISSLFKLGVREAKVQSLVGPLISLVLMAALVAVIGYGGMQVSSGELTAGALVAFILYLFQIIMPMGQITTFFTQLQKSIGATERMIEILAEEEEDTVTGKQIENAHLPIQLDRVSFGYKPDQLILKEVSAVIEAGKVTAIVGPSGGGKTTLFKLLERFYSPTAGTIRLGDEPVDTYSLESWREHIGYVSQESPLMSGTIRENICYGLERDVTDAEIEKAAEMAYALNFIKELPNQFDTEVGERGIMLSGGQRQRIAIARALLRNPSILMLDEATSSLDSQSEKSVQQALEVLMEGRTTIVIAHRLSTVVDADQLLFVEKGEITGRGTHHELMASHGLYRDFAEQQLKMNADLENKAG

**Q.** How did the Kd turn out when `COc1cccc2c1C(=O)c1c(O)c3c(c(O)c1C2=O)C[C@@](O)(C(C)=O)C[C@@H]3O[C@H]1C[C@H](N)[C@H](O)[C@H](C)O1` [daunorubicin] was run?
**A.** The Kd was 12.4 ± 0.8 µM.
